From ChEMBL document CHEMBL3885881, “DrugMatrix”

Species: Rattus norvegicus
Test: DrugMatrix - Regimen: Daily Repeat
Format: toxicity, organism-based, Sprague-Dawley
Parameters: regimen Daily Repeat, gender Male, age 6-8 weeks
Conditions: in vivo, po, 0 mg/kg, route oral GAVAGE, dose level Control, […]; for ABSOLUTE BASOPHIL / ABSOLUTE EOSINOPHIL / ABSOLUTE LYMPHOCYTE / ABSOLUTE MONOCYTE / ABSOLUTE SEGMENTED NEUTROPHIL / BASOPHIL / EOSINOPHIL / ERYTHROCYTE COUNT / HEMATOCRIT / HEMOGLOBIN / LEUKOCYTE COUNT / LYMPHOCYTE / MEAN CORPUSCULAR HEMOGLOBIN / MEAN CORPUSCULAR HEMOGLOBIN CONCENTRATION / MEAN CORPUSCULAR VOLUME / MONOCYTE / NEUTROPHIL / NUCLEATED RED BLOOD CELLS / PLATELET COUNT: tissue Blood; for ALANINE AMINOTRANSFERASE / ALKALINE PHOSPHATASE / ASPARTATE AMINOTRANSFERASE / BLOOD UREA NITROGEN / CARBON DIOXIDE / CHLORIDE / CHOLESTEROL / CREATINE PHOSPHOKINASE / CREATININE / GLUCOSE / LACTATE DEHYDROGENASE / LIPASE / PHOSPHORUS / POTASSIUM / SODIUM / TOTAL BILIRUBIN / TOTAL PROTEIN / URIC ACID: tissue Plasma

## CC(=O)[C@H]1CC[C@H]2[C@@H]3CCC4=CC(=O)CC[C@]4(C)[C@H]3CC[C@]12C [PROGESTERONE]
72 h, time 3 day
  ABSOLUTE BASOPHIL: 0 CELLS/uL
  ABSOLUTE EOSINOPHIL: 41.83 CELLS/uL
  ABSOLUTE LYMPHOCYTE: 8545.5 CELLS/uL
  ABSOLUTE MONOCYTE: 240 CELLS/uL
  ABSOLUTE SEGMENTED NEUTROPHIL: 906 CELLS/uL
  BASOPHIL: 0%
  EOSINOPHIL: 0.33%
  ERYTHROCYTE COUNT: 5.6 x10E6/uL
  HEMATOCRIT: 35.4%
  HEMOGLOBIN: 13.42 G/DL
  LEUKOCYTE COUNT: 9.73 x10E3/uL
  LYMPHOCYTE: 87.83%
  MEAN CORPUSCULAR HEMOGLOBIN: 23.98 pg
  MEAN CORPUSCULAR HEMOGLOBIN CONCENTRATION: 37.92 G/DL
  MEAN CORPUSCULAR VOLUME: 63.3 fL
  MONOCYTE: 2.5%
  NEUTROPHIL: 9.33%
  NUCLEATED RED BLOOD CELLS: 0 /100WBC
  PLATELET COUNT: 1032 x10E3/uL
  ALANINE AMINOTRANSFERASE: 72.83 u/L
  ALKALINE PHOSPHATASE: 322.83 u/L
  ASPARTATE AMINOTRANSFERASE: 102.67 u/L
  BLOOD UREA NITROGEN: 12 mg/dL
  CARBON DIOXIDE: 34.33 mmol/L
  CHLORIDE: 97.67 MEQ/L
  CHOLESTEROL: 82.5 mg/dL
  CREATINE PHOSPHOKINASE: 410.33 u/L
  CREATININE: 0.18 mg/dL
  GLUCOSE: 164.5 mg/dL
  LACTATE DEHYDROGENASE: 119.5 u/L
  LIPASE: 11.83 u/L
  PHOSPHORUS: 9.52 mg/dL
  POTASSIUM: 5.56 MEQ/L
  SODIUM: 142.48 MEQ/L
  TOTAL BILIRUBIN: 0.18 mg/dL
  TOTAL PROTEIN: 5.77 G/DL
  URIC ACID: 0.48 mg/dL
120 h, time 5 day
  ABSOLUTE BASOPHIL: 0 CELLS/uL
  ABSOLUTE EOSINOPHIL: 0 CELLS/uL
  ABSOLUTE LYMPHOCYTE: 9065 CELLS/uL
  ABSOLUTE MONOCYTE: 341.33 CELLS/uL
  ABSOLUTE SEGMENTED NEUTROPHIL: 527 CELLS/uL
  BASOPHIL: 0%
  EOSINOPHIL: 0%
  ERYTHROCYTE COUNT: 5.25 x10E6/uL
  HEMATOCRIT: 34.08%
  HEMOGLOBIN: 13.5 G/DL
  LEUKOCYTE COUNT: 9.93 x10E3/uL
  LYMPHOCYTE: 91.17%
  MEAN CORPUSCULAR HEMOGLOBIN: 25.7 pg
  MEAN CORPUSCULAR HEMOGLOBIN CONCENTRATION: 39.62 G/DL
  MEAN CORPUSCULAR VOLUME: 64.93 fL
  MONOCYTE: 3.33%
  NEUTROPHIL: 5.5%
  NUCLEATED RED BLOOD CELLS: 0 /100WBC
  PLATELET COUNT: 1077.5 x10E3/uL
  ALANINE AMINOTRANSFERASE: 57.83 u/L
  ALKALINE PHOSPHATASE: 319.17 u/L
  ASPARTATE AMINOTRANSFERASE: 83.33 u/L
  BLOOD UREA NITROGEN: 13.67 mg/dL
  CARBON DIOXIDE: 30.83 mmol/L
  CHLORIDE: 98.33 MEQ/L
  CHOLESTEROL: 64.83 mg/dL
  CREATINE PHOSPHOKINASE: 263.67 u/L
  CREATININE: 0.2 mg/dL
  GLUCOSE: 182.83 mg/dL
  LACTATE DEHYDROGENASE: 124 u/L
  LIPASE: 10.5 u/L
  PHOSPHORUS: 10 mg/dL
  POTASSIUM: 5.78 MEQ/L
  SODIUM: 142.48 MEQ/L
  TOTAL BILIRUBIN: 0.2 mg/dL
  TOTAL PROTEIN: 6 G/DL
  URIC ACID: 0.7 mg/dL
